This passage reports MIC and CC50 results from ChEMBL document CHEMBL4513161, “CO-ADD screening of MMV (CH) - Pandemic Response Box” (2021).

Converted amounts (≈) assume the structure as drawn. Structures can show the parent of a compound that is named as a salt.

The test system of assay [1] is Escherichia coli. The following applies: ASSAY_TEST Inhibition of Bacterial Growth; detection method Absorption (OD600); MEDIA CAMHB; plate type 384well; NBS; CORNING #3640; time 18 hr.
Description: (§1) Antibacterial activity against Escherichia coli ATCC 25922 (CO-ADD:GN_001); MIC in CAMBH media using NBS plates, by OD(600)
Assay [2] relates to Cryptococcus neoformans.
Description: Antifungal activity against Cryptococcus neoformans H99 ATCC 208821 (CO-ADD:FG_002); MIC in YNB media using NBS plates, by Resazurin OD(600-570)
Assay [3] deals with Pseudomonas aeruginosa. The following applies: ASSAY_TEST Inhibition of Bacterial Growth; detection method Absorption (OD600); MEDIA CAMHB; plate type 384well; NBS; CORNING #3640; time 18 hr.
Description: (§2) Antibacterial activity against Pseudomonas aeruginosa ATCC 27853 (CO-ADD:GN_042); MIC in CAMBH media using NBS plates, by OD(600)
The subject of assay [4] is HEK293. Put plainly: cells. In kind it is functional, Homo sapiens, ATCC CRL1573. The following applies: Homo sapiens.
For assay [5], the system named is Pseudomonas aeruginosa. Description: Antibacterial activity against Pseudomonas aeruginosa PAO397 [PAO1 d(mexAB-oprM) d(mexCD-oprJ) d(mexEF-oprN) d(mexJKL) d(mexXY) d(opmH)] (CO-ADD:GN_211); MIC in CAMBH media using NBS plates, by OD(600). Type of assay: functional. The following applies: ASSAY_TEST Inhibition of Bacterial Growth, detection method Absorption (OD600), MEDIA CAMHB, plate type 384well, CORNING #3640, time 18 hr.

Assay [6] concerns Candida albicans. The following applies: ASSAY_TEST Inhibition of Fungal Growth; detection method Absorption (OD530); plate type 384well; NBS; CORNING #3640.
Description: (§3) Antifungal activity against Candida albicans ATCC 90028 (CO-ADD:FG_001); MIC in YNB media using NBS plates, by OD630
Assay [7] concerns Klebsiella pneumoniae. The following applies: ASSAY_TEST Inhibition of Bacterial Growth; detection method Absorption (OD600); MEDIA CAMHB; plate type 384well; NBS; CORNING #3640; time 18 hr.
Description: (§4) Antibacterial activity against Klebsiella pneumoniae MDR ATCC 70063 (CO-ADD:GN_003); MIC in CAMBH media using NBS plates, by OD(600)
Assay [8] relates to Staphylococcus aureus. The following applies: ASSAY_TEST Inhibition of Bacterial Growth; detection method Absorption (OD600); MEDIA CAMHB; plate type 384well; NBS; CORNING #3640; time 18 hr.
Description: (§5) Antibacterial activity against Staphylococcus aureus MRSA ATCC 43300 (CO-ADD:GP_020); MIC in CAMBH media, using NBS plates, by OD(600)
The subject of assay [9] is Acinetobacter baumannii. The following applies: ASSAY_TEST Inhibition of Bacterial Growth; detection method Absorption (OD600); MEDIA CAMHB; plate type 384well; NBS; CORNING #3640; time 18 hr.
Description: (§6) Antibacterial activity against Acinetobacter baumannii ATCC 19606 (CO-ADD:GN_034); MIC in CAMBH media using NBS plates, by OD600
Assay [10] relates to Pseudomonas aeruginosa. Description: microbe, parasite or virus in culture. The following applies: ATCC 27853, 18 h, ASSAY_TEST Inhibition of Bacterial Growth, detection method Absorption (OD600), MEDIA CAMHB, plate type 384well, NBS, CORNING #3640.
Description: as §2
The subject of assay [11] is Staphylococcus aureus. Description: microbe, parasite or virus in culture. The following applies: ATCC 43300, 18 h, ASSAY_TEST Inhibition of Bacterial Growth, detection method Absorption (OD600), MEDIA CAMHB, plate type 384well, NBS, CORNING #3640.
Description: as §5
Assay [12] deals with Acinetobacter baumannii. Description: microbe, parasite or virus in culture. The following applies: ATCC 19606, 18 h, ASSAY_TEST Inhibition of Bacterial Growth, detection method Absorption (OD600), MEDIA CAMHB, plate type 384well, NBS, CORNING #3640.
Description: as §6
For assay [13], the system named is Candida albicans. Put plainly: microbe, parasite or virus in culture. The following applies: ATCC 90028, ASSAY_TEST Inhibition of Fungal Growth, detection method Absorption (OD530), plate type 384well, NBS, CORNING #3640.
Description: as §3
Assay [14] concerns Klebsiella pneumoniae. Description: microbe, parasite or virus in culture. The following applies: ATCC 700603, 18 h, ASSAY_TEST Inhibition of Bacterial Growth, detection method Absorption (OD600), MEDIA CAMHB, plate type 384well, NBS, CORNING #3640.
Description: as §4
The test system of assay [15] is Escherichia coli. Description: microbe, parasite or virus in culture. The following applies: ATCC 25922, 18 h, ASSAY_TEST Inhibition of Bacterial Growth, detection method Absorption (OD600), MEDIA CAMHB, plate type 384well, NBS, CORNING #3640.
Description: as §1
Setting [16] is: ATCC CRL1573, HEK293, ASSAY_TEST Inhibition of Cell Viability, detection method Resazurin, Fluorescence (ex560/em590), MEDIA DMEM with 10% FBS, plate type 384well, TC, CORNING #3712, time 18 hr, read-out: CC50.

In the case of `CO[C@@]1(NC(=O)Cc2cccs2)C(=O)N2C(C(=O)O)=C(COC(N)=O)CS[C@@H]21` [CEFOXITIN], the MIC in assay [1] is 5 µM (≈ 2.14 µg/mL); in assay [2], greater than 20 µM; in assay [3], greater than 20 µM; in assay [5], greater than 20 µM; in [6] it was greater than 20 µM; in assay [7], greater than 20 µM. Moreover, the MIC in assay [8] and in assay [9] was greater than 20 µM throughout. The CC50 in [4] (setting [16]) is greater than 20 µM.
`CC(C)/N=c1\cc2n(-c3ccc(Cl)cc3)c3ccccc3nc-2cc1Nc1ccc(Cl)cc1` [CLOFAZIMINE]: the MIC in [1], in assay [2], in assay [3], in [5], in assay [6] and in assay [7] was greater than 20 µM in each case. Further, the MIC was 20 µM (≈ 9.47 µg/mL) in [8] and greater than 20 µM in assay [9]. Further, the cytotoxic concentration (CC50) in [4] (setting [16]) is greater than 20 µM.
Turning to `O=c1[nH]cnc2c1ncn2[C@H]1CC[C@@H](CO)O1` [DIDANOSINE], the MIC in assay [1], in assay [2], in assay [3], in [5], in assay [6] and in assay [7] was greater than 20 µM throughout. The MIC in assay [8] and in assay [9] was greater than 20 µM in each case. For the same compound, in assay [4] (setting [16]), the half-maximal cytotoxic concentration (CC50) is greater than 20 µM.
As to `OC(Cn1cncn1)(Cn1cncn1)c1ccc(F)cc1F` [FLUCONAZOLE], the MIC in assay [1] was greater than 20 µM; in assay [2] it was greater than 20 µM; in assay [3], greater than 20 µM; in assay [5], greater than 20 µM; in assay [6], 2.5 µM (≈ 0.766 µg/mL); in assay [7], greater than 20 µM. Moreover, the MIC in [8] and in assay [9] was greater than 20 µM throughout. Also, the CC50 in [4] (setting [16]) is greater than 20 µM.
Take `Nc1nc(=O)[nH]cc1F` [FLUCYTOSINE]: the MIC is greater than 20 µM in [1]; 1.25 µM (≈ 0.161 µg/mL) in [2]; greater than 20 µM in [3]; greater than 20 µM in assay [5]; 1.25 µM (≈ 0.161 µg/mL) in assay [6]; greater than 20 µM in assay [7]. Also, the MIC in assay [8] and in assay [9] was greater than 20 µM each time. The cytotoxic concentration (CC50) in [4] (setting [16]) is greater than 20 µM.
On to `CCC(C)n1ncn(-c2ccc(N3CCN(c4ccc(OCC5COC(Cn6cncn6)(c6ccc(Cl)cc6Cl)O5)cc4)CC3)cc2)c1=O` (centres undefined) [ITRACONAZOLE], for which the MIC in assay [1] is greater than 20 µM; in assay [2], no more than 0.156 µM; in [3], greater than 20 µM; in [5] it was greater than 20 µM; in assay [6] it was “<=0.1562 uM”; in assay [7], greater than 20 µM. In addition, the MIC in [8] and in assay [9] was greater than 20 µM in each case. For the same compound, in assay [4] (setting [16]), the CC50 was greater than 20 µM.
Take `CC(=O)N1CCN(c2ccc(OCC3COC(Cn4ccnc4)(c4ccc(Cl)cc4Cl)O3)cc2)CC1` (centres undefined) [KETOCONAZOLE]: the MIC in assay [1] was greater than 20 µM; in assay [2] it was 5 µM (≈ 2.66 µg/mL); in [3], greater than 20 µM; in assay [5], 20 µM (≈ 10.6 µg/mL); in assay [6] it was 0.3125 µM (≈ 0.166 µg/mL); in [7], greater than 20 µM. For the same compound, the MIC in [8] and in [9] was greater than 20 µM in each case. In addition, the CC50 in assay [4] (ATCC CRL1573, HEK293, 18 h) is greater than 20 µM.
For `O=C1CCC(N2C(=O)c3ccccc3C2=O)C(=O)N1` (centres undefined) [THALIDOMIDE], the MIC in assay [2], in [10], in assay [11], in [12], in [5] and in assay [13] was greater than 20 µM each time. Further, the MIC in assay [14] and in assay [15] was greater than 20 µM throughout. In [4] (setting [16]), the half-maximal cytotoxic concentration (CC50) was greater than 20 µM.
Take `Cn1cncc1[C@@](N)(c1ccc(Cl)cc1)c1ccc2c(c1)c(-c1cccc(Cl)c1)cc(=O)n2C` [TIPIFARNIB]: the MIC is greater than 20 µM in [2]; greater than 20 µM in assay [10]; 20 µM (≈ 9.79 µg/mL) in assay [11]; greater than 20 µM in assay [12]; greater than 20 µM in assay [5]; greater than 20 µM in assay [13]. Also, the MIC in assay [14] and in assay [15] was greater than 20 µM each time. Moreover, the CC50 in assay [4] (setting [16]) turned out to be 8.09 µM.
As to `NC[C@H]1O[C@H](O[C@H]2[C@H](O)[C@@H](O[C@H]3O[C@H](CO)[C@@H](O)[C@H](N)[C@H]3O)[C@H](N)C[C@@H]2N)[C@H](N)C[C@@H]1O` [TOBRAMYCIN], the MIC in assay [2] was greater than 20 µM; in assay [10] it was 20 µM (≈ 9.35 µg/mL); in [11], greater than 20 µM; in assay [12], 2.5 µM (≈ 1.17 µg/mL); in [5], 1.25 µM (≈ 0.584 µg/mL); in [13], greater than 20 µM. Besides, the MIC is greater than 20 µM in assay [14] and 2.5 µM (≈ 1.17 µg/mL) in [15]. In addition, the 50% cytotoxic concentration (CC50) in assay [4] (setting [16]) is greater than 20 µM.
For `CC[C@@]1(O)C(=O)OCc2c1cc1n(c2=O)Cc2cc3c(CN(C)C)c(O)ccc3nc2-1` [TOPOTECAN HYDROCHLORIDE], the MIC in assay [2], in assay [10], in assay [11], in assay [12], in assay [5] and in assay [13] was greater than 20 µM in each case. In addition, the MIC in [14] and in [15] was greater than 20 µM throughout. The half-maximal cytotoxic concentration (CC50) in assay [4] (setting [16]) was 0.218 µM.
Regarding `NC(=S)N/N=C/c1ncccc1N` [TRIAPINE], the MIC was greater than 20 µM in [2]; greater than 20 µM in assay [10]; greater than 20 µM in [11]; greater than 20 µM in assay [12]; 20 µM (≈ 3.91 µg/mL) in assay [5]; greater than 20 µM in assay [13]. Besides, the MIC in assay [14] and in assay [15] was greater than 20 µM throughout. In addition, in [4] (setting [16]), the CC50 was 2.83 µM.
As for `COc1cc(NCc2ccc3nc(N)nc(N)c3c2C)cc(OC)c1OC` [TRIMETREXATE], the MIC is greater than 20 µM in assay [2]; 5 µM (≈ 1.85 µg/mL) in [10]; 1.25 µM (≈ 0.462 µg/mL) in assay [11]; greater than 20 µM in assay [12]; 0.625 µM (≈ 0.231 µg/mL) in assay [5]; greater than 20 µM in assay [13]. The MIC in [14] is greater than 20 µM; in assay [15] it was 10 µM (≈ 3.69 µg/mL). In addition, the 50% cytotoxic concentration (CC50) in assay [4] (setting [16]) is greater than 20 µM.
In the case of `Cc1onc(-c2ccccc2)c1-c1ccc(S(N)(=O)=O)cc1` [VALDECOXIB], the MIC in assay [2], in assay [10], in assay [11], in assay [12], in assay [5] and in [13] was greater than 20 µM throughout. Also, the MIC in [14] and in [15] was greater than 20 µM each time. In [4] (setting [16]), the 50% cytotoxic concentration (CC50) was greater than 20 µM.
As to `O=C(/C=C\n1cnc(-c2cc(C(F)(F)F)cc(C(F)(F)F)c2)n1)NNc1ccccn1` [VERDINEXOR], the MIC in assay [2], in assay [10], in assay [11], in assay [12], in assay [5] and in assay [13] was greater than 20 µM in each case. Besides, the MIC in assay [14] and in assay [15] was greater than 20 µM each time. Besides, the CC50 in assay [4] (setting [16]) is greater than 20 µM.
For the compound `CCOC(=O)N[C@@H]1CC[C@@H]2[C@@H](C1)C[C@H]1C(=O)O[C@H](C)[C@H]1[C@H]2/C=C/c1ccc(-c2cccc(F)c2)cn1` [VORAPAXAR], the MIC in assay [2], in assay [10], in assay [11], in [12], in assay [5] and in assay [13] was greater than 20 µM in each case. The MIC in assay [14] and in assay [15] was greater than 20 µM throughout. Also, the CC50 in [4] (setting [16]) was greater than 20 µM.

As a reminder, the CC50 is the concentration giving 50% cytotoxicity.
